Where two headings read alike, the source gives them in different places.

In the test the target is T1, human recombinant IL-17A (Homo sapiens, UniProt Q16552).
T1 construct: purchased R&D Systems 7955-IL/CF
T1 sequence (Q16552 24-155): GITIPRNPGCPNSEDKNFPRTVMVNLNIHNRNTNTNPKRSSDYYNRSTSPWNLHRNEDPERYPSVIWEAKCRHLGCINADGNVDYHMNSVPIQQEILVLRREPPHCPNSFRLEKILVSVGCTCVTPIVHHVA
Put plainly: IL-17A AlphaLISA assay (block binding of IL-17A to its receptor IL-17RA). The settings on record: read-out: AlphaLISA pIC50 (converted). On the procedure: The ability of the compounds to block binding of IL-17A to its receptor, IL-17RA, was analysed in a competition assay using AlphaLISA technology (Perkin Elmer). The assay is a bead based AlphaLISA where the IL-17RA is captured on the acceptor bead via an Fc tag and IL-17A is captured on the streptavidin donor bead via a biotinylated anti-IL17A antibody.
Assay buffer was prepared by adding 0.05% Tween-20 (v/v) and 0.1% BSA to Phosphate Buffered Saline (PBS). The assay was carried out in 384-well white low volume plates (Corning 4512). 10 µL of a 7.5 nM stock of human recombinant IL-17A (R&D Systems 7955-IL/CF) diluted in assay buffer was dispensed into the assay plate and compounds or DMSO vehicle control were added in a volume of 75 nL using a D300 dispenser (Hewlett Packard). The compounds were pre-incubated with the IL-17A for 24 h at room temperature (or for 30 min, where indicated by * in Table A below) prior to addition of 5 μL of a 5 nM stock of human recombinant IL-17RA/Fc chimera (R&D Systems 177-IR-100) diluted in assay buffer. The IL-17A was incubated with the receptor for a further 90 minutes at room temperature before addition of 5 μL of a mixture of anti-human Fc IgG acceptor beads (75 μg/mL, Perkin Elmer AL103C) and anti-IL-17A biotin conjugated antibody (5 nM, Enzo Life Sciences, ENZ-ABS278-0100) in assay buffer. After a further 30 min incubation at room temperature, 5 μL of streptavidin donor beads ([…], Perkin Elmer 6760002S) were added and the plate was incubated for 3 h in the dark.
The luminescence signal was measured using an Enspire plate reader (Perkin Elmer) with excitation at 680 nm and emission at 615 nm. Data were analysed using GraphPad Prism and fitted to a 4-parameter logistic equation. The IC50 values were calculated using the DMSO vehicle as the negative control and a high concentration (6 μM) of a reference IL-17A inhibitor as the positive control.
Activity of the Example compounds is reported as a PIC50 value in Table A.

[1] abbreviates: compounds pre-incubated with the IL-17A for 24 h at room temperature.
[2] abbreviates: compounds pre-incubated with the IL-17A for 30 min (indicated by * in Table A).

Consider `Cc1cc(-c2ccc(NC(=O)[C@@H](NC(=O)c3ccnn3C)C(c3ccccc3)c3ccccc3)cc2)c(C)cn1` [Example 38, (S)—N-(1-((4-(2,5-dimethylpyridin-4-yl)phenyl)amino)-1-oxo-3,3-diphenylpropan-2-yl)-1-methyl-1H-pyrazole-5-carboxamide], for which, under setting [1], the IC50 was 100 nM.

Consider `Cc1nocc1C(=O)N[C@H](C(=O)Nc1ccc(-c2c(C)nnn2C)cn1)[C@H]1CC[C@H](C)CC1` [Example 160, N—((S)-2-((5-(1,4-dimethyl-1H-1,2,3-triazol-5-yl)pyridin-2-yl)amino)-1-((1r,4S)-4-methylcyclohexyl)-2-oxoethyl)-3-methylisoxazole-4-carboxamide], for which the IC50 under setting [2] is 200 nM.

Take `Cc1n[nH]c(C)c1-c1ccc(NC(=O)[C@@H](NC(=O)c2ccnn2C)C(c2ccccc2)c2ccccc2)cc1` [Example 32, (S)—N-(1-((4-(3,5-dimethyl-1H-pyrazol-4-yl)phenyl)amino)-1-oxo-3,3-diphenylpropan-2-yl)-1-methyl-1H-pyrazole-5-carboxamide]: the IC50 under setting [1] was 12.6 nM.

On to `Cc1nnn(CC(=O)N(C)C)c1-c1ccc(NC(=O)[C@@H](NC(=O)c2ccnn2C)C2CCCCCC2)nc1` [Example 190, (S)—N-(1-cycloheptyl-2-((5-(1-(2-(dimethylamino)-2-oxoethyl)-4-methyl-1H-1,2,3-triazol-5-yl)pyridin-2-yl)amino)-2-oxoethyl)-1-methyl-1H-pyrazole-5-carboxamide], for which the IC50 under setting [2] is 794 nM.

Regarding `CCn1nccc1C(=O)N[C@H](C(=O)Nc1ccc(-c2c(C)n[nH]c2C)nc1)[C@H]1CC[C@H](C)CC1` [Example 212, N—((S)-2-((6-(3,5-dimethyl-1H-pyrazol-4-yl)pyridin-3-yl)amino)-1-((1r,4S)-4-methylcyclohexyl)-2-oxoethyl)-1-ethyl-1H-pyrazole-5-carboxamide], the IC50 under setting [2] is 100 nM.

Regarding `Cc1cnccc1-c1ccc(NC(=O)[C@@H](NC(=O)c2ccnn2C)C(c2ccccc2)c2ccccc2)cc1` [Example 4, (S)-1-methyl-N-(1-((4-(3-methylpyridin-4-yl)phenyl)amino)-1-oxo-3,3-diphenylpropan-2-yl)-1H-pyrazole-5-carboxamide], the IC50 under setting [1] was 20 nM.

Regarding `COc1c[n+]([O-])cc(OC)c1-c1ccc(NC(=O)[C@@H](NC(=O)c2ccnn2C)C(c2ccccc2)c2ccccc2)cc1` [Example 27, (S)-3,5-dimethoxy-4-(4-(2-(1-methyl-1H-pyrazole-5-carboxamido)-3,3-diphenylpropanamido)phenyl)pyridine 1-oxide], under setting [1], the IC50 was 5.01 nM.

As for `CCc1nocc1C(=O)N[C@H](C(=O)Nc1ccc(-c2c(C)n[nH]c2C)nc1)C1CCCCCC1` [Example 210, (S)—N-(1-cycloheptyl-2-((6-(3,5-dimethyl-1H-pyrazol-4-yl)pyridin-3-yl)amino)-2-oxoethyl)-3-ethylisoxazole-4-carboxamide], the IC50 under setting [2] was 63.1 nM.

`COc1cncc(F)c1-c1ccc(NC(=O)[C@@H](NC(=O)c2ccnn2C)C(c2ccccc2)c2ccccc2)cc1` [Example 10, (S)—N-(1-((4-(3-fluoro-5-methoxypyridin-4-yl)phenyl)amino)-1-oxo-3,3-diphenylpropan-2-yl)-1-methyl-1H-pyrazole-5-carboxamide]: the IC50 under setting [1] was 7.94 nM.

For the molecule `Cc1cc(=O)n(C)cc1-c1ccc(NC(=O)[C@@H](NC(=O)c2ccnn2C)C(c2ccccc2)c2ccccc2)cc1` [Example 12, (S)—N-(1-((4-(1,4-dimethyl-6-oxo-1,6-dihydropyridin-3-yl)phenyl)amino)-1-oxo-3,3-diphenylpropan-2-yl)-1-methyl-1H-pyrazole-5-carboxamide], the IC50 under setting [1] is 10 nM.

Consider `Cn1nccc1C(=O)N[C@H](C(=O)Nc1ccc(-c2ccncc2F)cc1)C(c1ccccc1)c1ccccc1` [Example 36, (S)—N-(1-((4-(3-fluoropyridin-4-yl)phenyl)amino)-1-oxo-3,3-diphenylpropan-2-yl)-1-methyl-1H-pyrazole-5-carboxamide], for which the IC50 under setting [1] was 79.4 nM.

Take `Cc1cc(=O)[nH]cc1-c1ccc(NC(=O)[C@@H](NC(=O)c2ccnn2C)C(c2ccccc2)c2ccccc2)cc1` [Example 50, (S)-1-methyl-N-(1-((4-(4-methyl-6-oxo-1,6-dihydropyridin-3-yl)phenyl)amino)-1-oxo-3,3-diphenylpropan-2-yl)-1H-pyrazole-5-carboxamide]: the IC50 under setting [1] is 39.8 nM.

On to `Cc1n[nH]c(C)c1-c1ccc(NC(=O)[C@@H](NC(=O)c2ccnn2C)[C@H]2CC[C@H](C)CC2)nc1` [Example 99, N—((S)-2-((5-(3,5-Dimethyl-1H-pyrazol-4-yl)pyridin-2-yl)amino)-1-((1r,4S)-4-methylcyclohexyl)-2-oxoethyl)-1-methyl-1H-pyrazole-5-carboxamide], for which the IC50 under setting [2] is 200 nM.

On to `CCn1nccc1C(=O)N[C@H](C(=O)Nc1ccc(-c2ccc(=O)n(C)c2C)cn1)[C@H]1CC[C@H](C)CC1` [Example 91, N—((S)-2-((1′,2′-Dimethyl-6′-oxo-1′,6′-dihydro-[3,3′-bipyridin]-6-yl)amino)-1-((1r,4S)-4-methylcyclohexyl)-2-oxoethyl)-1-ethyl-1H-pyrazole-5-carboxamide], for which the IC50 under setting [1] was 251 nM.

For `Cn1nccc1C(=O)N[C@H](C(=O)Nc1ccc(-c2cc[nH]c(=O)c2)cc1)[C@H]1CC[C@H](C)CC1` [Example 87, 1-Methyl-N—((S)-1-((1r,4S)-4-methylcyclohexyl)-2-oxo-2-((4-(2-oxo-1,2-dihydropyridin-4-yl)phenyl)amino)ethyl)-1H-pyrazole-5-carboxamide], under setting [1], the IC50 is 501 nM.

With `CCc1nocc1C(=O)N[C@H](C(=O)Nc1ccc(-c2c(C)nnn2C)cn1)[C@H]1CC[C@H](C)CC1` [Example 188, N—((S)-2-((5-(1,4-dimethyl-1H-1,2,3-triazol-5-yl)pyridin-2-yl)amino)-1-((1r,4S)-4-methylcyclohexyl)-2-oxoethyl)-3-ethylisoxazole-4-carboxamide], under setting [2], the IC50 is 100 nM.

For the molecule `Cc1cncc(C)c1-c1ccc(NC(=O)[C@@H](NC(=O)c2ccnn2C)C2CCC(F)(F)CC2)cc1` (single isomer, unassigned) [Example 98], the IC50 under setting [2] is 251 nM.

As for `Cc1noc(C)c1-c1ccc(NC(=O)[C@@H](NC(=O)c2ccnn2C)[C@H]2CC[C@H](C)CC2)nc1` [Example 97, N—((S)-2-((5-(3,5-Dimethylisoxazol-4-yl)pyridin-2-yl)amino)-1-((1r,4S)-4-methylcyclohexyl)-2-oxoethyl)-1-methyl-1H-pyrazole-5-carboxamide], the IC50 under setting [1] is 79.4 nM.

`Cc1cnn(C)c1-c1ccc(NC(=O)[C@@H](NC(=O)c2nonc2C)C2CCCCCC2)nc1` [Example 134, (S)—N-(1-Cycloheptyl-2-((5-(1,4-dimethyl-1H-pyrazol-5-yl)pyridin-2-yl)amino)-2-oxoethyl)-4-methyl-1,2,5-oxadiazole-3-carboxamide]: the IC50 under setting [2] is 200 nM.

Consider `Cc1cnn(C)c1-c1ncc(NC(=O)[C@@H](NC(=O)c2ccnn2C)[C@H]2CC[C@H](C)CC2)cc1F` [Example 179, N—((S)-2-((6-(1,4-dimethyl-1H-pyrazol-5-yl)-5-fluoropyridin-3-yl)amino)-1-((1r,4S)-4-methylcyclohexyl)-2-oxoethyl)-1-methyl-1H-pyrazole-5-carboxamide], for which the IC50 under setting [2] was 501 nM.

As to `Cn1nccc1C(=O)N[C@H](C(=O)Nc1ccc(-c2c[nH]c(=O)c3[nH]ccc23)cc1)[C@H]1CC[C@H](C)CC1` [Example 85, 1-Methyl-N—((S)-1-((1r,4S)-4-methylcyclohexyl)-2-oxo-2-((4-(7-oxo-6,7-dihydro-1H-pyrrolo[2,3-c]pyridin-4-yl)phenyl)amino)ethyl)-1H-pyrazole-5-carboxamide], the IC50 under setting [1] was 63.1 nM.

As for `Cc1cnn(C)c1-c1ccc(NC(=O)[C@@H](NC(=O)c2conc2C)[C@H]2CC[C@H](C)CC2)nc1` [Example 131, N—((S)-2-((5-(1,4-Dimethyl-1H-pyrazol-5-yl)pyridin-2-yl)amino)-1-((1r,4S)-4-methylcyclohexyl)-2-oxoethyl)-3-methylisoxazole-4-carboxamide], the IC50 under setting [2] is 63.1 nM.

`CCc1nocc1C(=O)N[C@H](C(=O)Nc1ccc(-c2c(C)n[nH]c2C)nc1)[C@H]1CC[C@H](C)CC1` [Example 213, N—((S)-2-((6-(3,5-dimethyl-1H-pyrazol-4-yl)pyridin-3-yl)amino)-1-((1r,4S)-4-methylcyclohexyl)-2-oxoethyl)-3-ethylisoxazole-4-carboxamide]: under setting [2], the IC50 is 100 nM.

The values are drawn from patent US20230227427A1, “IL-17A MODULATORS” (SANOFI, priority 2010, published 2023).
